{
  "source": "patent US11033538B2",
  "about": "“Dosing regimens for the treatment of lysosomal storage diseases using pharmacological chaperones” (Amicus Therapeutics, Inc., priority 2007, dated 2021)",
  "key": {"GL-3 [1]": {"system": "GL-3", "test": "Example 15, kidney interstitial capillary GL-3 inclusions", "type": "in vivo, human", "text": "The tertiary objectives were cardiac function, patient-reported outcomes, exploratory kidney analyses, and white blood cell α-galactosidase activity. Study completers were eligible to enroll in the open-label study—AT1001-041/NCT01458119—for up to 5 years.\nEach patient underwent a baseline kidney biopsy, as well as repeat kidney biopsies at 6 and 12 months. The number of GL-3 inclusions per kidney interstitial capillary per patient at baseline, and at 6 and 12 months was quantitatively assessed in 300 capillaries by 3 independent pathologists blinded to treatment and visit. All values for each individual biopsy at a given time were averaged prior to statistical analysis.\nTwo other Stage 1 endpoints were assessed (modified-ITT population: randomized patients with paired baseline and month 6 biopsies; n=60): percent change in GL-3 inclusions per interstitial capillary, and percent of interstitial capillaries with zero GL-3 inclusions."}, "α-GAL [2]": {"target": "T1, α-GAL (Homo sapiens, UniProt P06280, R301Q)", "T1 construct": "from tissue; host or cells: skin, heart, kidney of transgenic mice", "T1 sequence (P06280 32-429 R301Q)": "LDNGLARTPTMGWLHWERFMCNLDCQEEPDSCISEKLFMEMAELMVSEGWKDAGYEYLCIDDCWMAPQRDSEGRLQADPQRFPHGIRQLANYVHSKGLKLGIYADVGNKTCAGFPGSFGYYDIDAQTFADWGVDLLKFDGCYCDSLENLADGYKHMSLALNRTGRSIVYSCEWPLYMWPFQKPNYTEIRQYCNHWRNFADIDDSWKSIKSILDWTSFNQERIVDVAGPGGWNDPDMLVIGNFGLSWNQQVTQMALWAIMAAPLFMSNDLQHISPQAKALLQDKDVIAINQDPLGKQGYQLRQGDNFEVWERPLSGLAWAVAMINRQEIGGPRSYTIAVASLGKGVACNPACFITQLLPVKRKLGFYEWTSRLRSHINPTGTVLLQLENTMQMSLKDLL", "test": "Example 8, α-GAL expression in tissues of transgenic mice expressing R301Q", "type": "in vivo", "details": "100 mg/kg ad libitum, four weeks"}, "GL-3 [3]": {"system": "GL-3", "test": "Example 11, GL-3 levels by LC-MS/MS in hR301Q GLA Tg/KO mice, daily vs less frequent dosing", "type": "in vivo", "details": "300 mg/kg in drinking water, 4 weeks; skin, heart, kidney, plasma", "procedure": "Lysates were prepared from skin, heart, kidney and plasma. GL-3 levels were measured by LC-MS/MS (expressed in mg/g tissue weight or mg/mL plasma). […] Each bar represents the mean±SEM of 10-16 mice/group."}, "GL-3 [4]": {"system": "GL-3", "test": "Example 6, urinalysis of GL-3", "type": "in vivo, human", "procedure": "(§1) Four male patients received a single 150 mg Q.O.D for 12 weeks (Group B); while five male patients received 150 mg Q.O.D. for 24 weeks (Group C). Finally nine female patients were randomized to receive one of three dosages: 50, 150 or 250 mg Q.O.D for 12 weeks (Group D) (FIG. 8).\nUrine was analysed at baseline and periodically every 2-6 weeks for GL-3."}, "hR301Q GLA": {"target": "T2, hR301Q GLA (Homo sapiens, UniProt P06280, R301Q)", "T2 construct": "from tissue; host or cells: skin, heart, kidney lysates of hR301Q GLA Tg/KO mice", "T2 sequence (P06280 32-429 R301Q)": "T1 sequence (P06280 32-429 R301Q)", "test": "Example 12, GLA activity and protein in tissues of hR301Q GLA Tg/KO mice", "type": "in vivo", "details": "4 weeks", "procedure": "Tissue lysates from skin, heart, and kidney were prepared and tested for GLA activity (using 4-MUG as substrate, expressed in nmol/mg protein/hr), GLA protein (using immunoblotting of […] tissue lysate with anti-human GLA antibody) and GL-3 levels (using LC-MS/MS, expressed in mg/g of tissue weight). […] Each bar represents the mean±SEM of n=7-8 mice/group. Each lane in the Western blots represents one mouse from each group."}, "GL-3 [5]": {"system": "GL-3", "test": "Oral administration of Amigal to mice that produce defective human α-GAL, GL-3", "type": "in vivo", "procedure": "Kidney GL-3 levels were assessed by an independent expert using electron microscopy."}, "α-GAL [6]": {"system": "α-GAL", "type": "in vivo, human", "details": "first eleven patients treated at least 12 weeks; two regimens", "procedure": "Eight patients in the study received an ascending dose of 25, 100, and then 250 mg b.i.d. over 6 weeks, followed by 50 mg/day for the remainder of the study.\nFor purposes of calculating the percentage of normal in the table, the level of α-GAL that is normal was derived by using the average of the levels of α-GAL in white blood cells of 15 healthy volunteers from the multiple-dose Phase I study."}, "[7]": {"system": "patients with Fabry disease", "test": "Example 15, echocardiography", "type": "in vivo, human", "details": "for decrease in interventricular septal wall thickness from baseline: up to 24 months", "procedure": "Left ventricular mass index, left posterior wall thickness, diastolic, interventricular septum thickness, diastolic and other parameters were assessed through blinded, centralized evaluation. The baseline visit of extension study AT1001-041/NCT01458119 was used as the last assessment."}, "GL-3 [8]": {"system": "GL-3", "test": "Example 6, kidney biopsy GL-3 by mass spectroscopy", "type": "in vivo, human", "procedure": "as §1\nKidney biopsies were performed at baseline, 12 weeks and 24 weeks post-treatment and evaluated for GL-3 deposits in various renal cells. GL-3 presence in the tissue was examined histologically as well as through the use of mass spectroscopy. Light microscopic analysis of kidney biopsies was performed, wherein the accumulation of GL-3 in the tissue was classified in a manner similar to the classification analysis performed in Kidney International, Vol. 62 (2002), pp. 1933-1946 which is hereby incorporated by reference. Cells were classified as containing no GL-3 accumulation (“0”); mild GL-3 accumulation (“1”); moderate GL-3 accumulation (“2”); or severe GL-3 accumulation (“3”).\nKidney GL-3 levels were assessed using histological and mass spectroscopic analysis. Kidney biopsies were examined in four of the “good” responders, two of the “moderate” responders, and two of the “non” responders. Accumulation of GL-3 was examined in three different kidney cell types: interstitial capillaries, distal tubules, and podocytes."}, "GL-3 [9]": {"system": "GL-3", "test": "Example 11, immunohistochemical staining of GL-3 in hR301Q GLA Tg/KO mice", "type": "in vivo", "procedure": "Immunohistochemical staining with a monoclonal anti-GL-3 antibody (nuclei counterstained with methyl green) was also performed. […] Data shown are representative pictures from 7-8 mice/group."}, "[10]": {"details": "female expected good responders"}},
  "data": [
    {"smiles": "OC[C@H]1NC[C@H](O)[C@@H](O)[C@H]1O", "note": "[DGJ, (2R,3S,4R,5S)-2-(hydroxymethyl) piperdine-3,4,5-triol]", "values": [
      {"measurement": "reduction in interstitial capillary GL-3 (±SEM)", "setting": "GL-3 [1]; 6 months of DGJ, mITT-suitable, p=0.008 vs placebo", "value": "−0.250±0.103"},
      {"measurement": "patients achieving a response (>50% reduction in GL-3 inclusions per interstitial capillary)", "setting": "GL-3 [1]; 6 months, ITT, 150 mg DGJ HCl every other day, 13 of 32, p=0.30 vs placebo", "value": 41, "unit": "%"},
      {"measurement": "median change in interstitial capillary GL-3 from baseline", "setting": "GL-3 [1]; 6 months, p=0.097 vs placebo", "value": "−40.8", "unit": "%"},
      {"measurement": "mean difference for the change in % of interstitial capillaries with zero GL-3 inclusions, in favor of DGJ", "setting": "GL-3 [1]; 6 months, vs placebo, p=0.042", "value": 7.3, "unit": "%"},
      {"measurement": "interstitial capillary GL-3 reduction after additional treatment", "setting": "GL-3 [1]; additional 6 months of treatment", "value": "remained stable"},
      {"measurement": "reduction in interstitial capillary GL-3 (±SEM)", "setting": "GL-3 [1]; at 12 months, patients switching from placebo to DGJ at 6 months, p=0.014", "value": "−0.330±0.152"},
      {"measurement": "treatment effect in interstitial capillary GL-3", "setting": "GL-3 [1]; patients with mutant α-galactosidase not suitable for DGJ therapy", "value": "did not show any treatment effect in interstitial capillary GL-3"},
      {"measurement": "α-GAL expression in the skin, heart and kidney", "setting": "α-GAL [2]", "value": "increased"},
      {"measurement": "GL-3 levels by LC-MS/MS, less frequent (4 days on/3 days off) vs daily dosing", "setting": "GL-3 [3]", "value": "greater reduction in GL-3 levels"},
      {"measurement": "expected good responders with urine GL-3 decrease greater than 10%", "setting": "GL-3 [4]; female", "value": "3 of the 5"},
      {"measurement": "mean decrease in urine GL-3 levels", "setting": "GL-3 [4]; [10]", "value": 20, "unit": "%"},
      {"measurement": "good responders with urine GL-3 decrease greater than 10%", "setting": "GL-3 [4]; male good responders", "value": "eight of the eleven"},
      {"measurement": "mean decrease in urine GL-3 levels", "setting": "GL-3 [4]; male good responders", "value": 38, "unit": "%"},
      {"measurement": "urine GL-3 following treatment", "setting": "GL-3 [4]; male moderate and non responders", "value": "overall increases in urine GL-3"},
      {"measurement": "GLA activity in skin, heart, kidney", "setting": "hR301Q GLA; 3, 10, 30, 100 or 300 mg/kg/day, p<0.05 vs. untreated", "value": "significant and dose-dependent increase in GLA activity"},
      {"measurement": "GLA protein (immunoblotting)", "setting": "hR301Q GLA; 3-300 mg/kg/day", "value": "significant and dose-dependent increase"},
      {"measurement": "GL-3 after oral administration", "setting": "GL-3 [5]", "value": "GL-3 reductions observed"},
      {"measurement": "patients with an increase in α-GAL activity", "setting": "α-GAL [6]", "value": "10 of the 11"},
      {"measurement": "LVMi change from baseline (±SD)", "setting": "[7]; 30/36 months of treatment, ±21.5", "value": "−7.8", "unit": "g/m^2"},
      {"measurement": "LVMi change from baseline", "setting": "[7]; 30/36 months, patients with baseline LVH (n=4)", "value": "−30.0±17.5", "unit": "g/m^2"},
      {"measurement": "left ventricular posterior wall thickness", "setting": "[7]; in vivo", "value": "stable for up to 24 months"},
      {"measurement": "decrease in interventricular septal wall thickness from baseline", "setting": "[7]", "value": 5.2, "unit": "%"},
      {"measurement": "decrease in interventricular septal wall thickness from baseline", "setting": "[7]; ±0.051, baseline 1.17 cm±0.057", "value": 0.061, "unit": "cm"},
      {"measurement": "expected good responders with kidney GL-3 decrease of greater than 10%", "setting": "GL-3 [8]; female", "value": "two of the five"},
      {"measurement": "mean decrease in kidney GL-3 levels (mass spectoanalysis)", "setting": "GL-3 [8]; [10]", "value": 20, "unit": "%"},
      {"measurement": "good responders with kidney GL-3 decrease of greater than 10%", "setting": "GL-3 [8]; male good responders", "value": 3},
      {"measurement": "mean decrease in kidney GL-3 levels (mass spectroanalysis)", "setting": "GL-3 [8]; male good responders", "value": 28, "unit": "%"},
      {"measurement": "GL-3 signal, less frequent vs daily dosing", "setting": "GL-3 [9]; 300 mg/kg, 4 weeks", "value": "greater GL-3 reduction was seen in each tissue"},
      {"measurement": "GL-3 signal by immunohistochemistry", "setting": "GL-3 [9]; both daily and less frequent treatment, skin, heart, kidney", "value": "reduced the amount and intensity of GL-3 signal in each tissue"}
    ]}
  ]
}
